Experimental data published in patent US12532884B2, “Fungicidal compositions” (SYNGENTA CROP PROTECTION AG, priority 2020, dated 2026).
Where two headings read alike, the source gives them in different places.

How the values were obtained:
[1] = test system: Phakopsora pachyrhizi; experiment: Example D: preventative activity against Phakopsora pachyrhizi on soybean (whole plants sprayed, leaf disks inoculated); format: in vivo
From the text: (§1) Certain mixture compositions comprising a compound of formula (I) described above may show a synergistic effect. This occurs whenever the action of an active ingredient combination is greater than the sum of the actions of the individual components. The action to be expected E for a given active ingredient combination obeys the so-called COLBY formula and can be calculated as follows (COLBY, S. R. “Calculating synergistic and antagonistic responses of herbicide combination”. Weeds, Vol. 15, pages 20-22; 1967): • ppm=milligrams of active ingredient (=a.i.) per liter of spray mixture • X=% action by active ingredient A) using p ppm of active ingredient • Y=% action by active ingredient B) using q ppm of active ingredient.
(§2) According to COLBY, the expected (additive) action of active ingredients A)+B) using p+q ppm of active ingredient is:
(§3) If the action actually observed (O) is greater than the expected action (E), then the action of the combination is super-additive, i.e. there is a synergistic effect. In mathematical terms, synergism corresponds to a positive value for the difference of (O-E). In the case of purely complementary addition of activities (expected activity), said difference (O-E) is zero. A negative value of said difference (O-E) signals a loss of activity compared to the expected activity.
Whole soybean plants are treated with the recited active ingredients 4 weeks after planting. 1 day after spraying leaf disks are cut from the first trifoliate leaf. Five repetitions at each rate are conducted. The leaf disks are inoculated with Phakopsora pachyrhizi (Asian soybean rust) one day after treatment. Evaluation of the leaf disks is conducted 11 to 14 days after inoculation and the activity is derived from the relation of the treated vs untreated, infested check. (100=no disease, no damage to the leaf, 0=high infestation, leaf damaged heavily). The rates of the active ingredients used are given in the tables as g active ingredient (a.i.)/ha.

[2] = test system: Septoria glycines; experiment: Example C3: mixtures against Septoria glycines (brown spot), liquid culture; format: cell-based; details: for inhibition at 0.1 ppm / inhibition at 0.3 ppm: Septoria glycines, read-out: Activity (%)
From the text: This occurs whenever the action of an active ingredient combination is greater than the sum of the actions of the individual components. The action to be expected E for a given active ingredient combination obeys the so-called COLBY formula and can be calculated as follows (COLBY, S. R. “Calculating synergistic and antagonistic responses of herbicide combination”. Weeds, Vol. 15, pages 20-22; 1967): • ppm=milligrams of active ingredient (=a.i.) per liter of spray mixture • X=% action by active ingredient A) using p ppm of active ingredient • Y=% action by active ingredient B) using q ppm of active ingredient.
as §2, §3
Mycelia fragments or conidia suspensions of a fungus prepared either freshly from liquid cultures of the fungus or from cryogenic storage, are directly mixed into nutrient broth. DMSO solutions of the test compound (max. 10 mg/mL) are diluted with 0.025% Tween20 by a factor of 50 and 10 μl of this solution is pipetted into a microtiter plate (96-well format). […] The test plates are incubated in the dark at 24° C. and 96% relative humidity. The inhibition of fungal growth is determined photometrically after 2 to 7 days, depending on the pathosystem, and percent antifungal activity relative to the untreated check is calculated.
Conidia of the fungus harvested from a fresh culture grown on artificial media, were directly mixed into nutrient broth (PDB potato dextrose broth). A DMSO solution of the test compounds was placed into a microtiter plate (96-well format) and the nutrient broth containing the fungal spores was added to it.
Fungicidal activity was evaluated on a 100-0 scale (100=no disease growth; 0=well completely covered by mycelium).

[3] = test system: Septoria tritici; experiment: Example C2: mixtures against Septoria tritici (leaf blotch), liquid culture; format: cell-based; details: for inhibition at 0.3 ppm: read-out: Activity (%)
From the text: as §1, §2, §3
Mycelia fragments or conidia suspensions of a fungus prepared either freshly from liquid cultures of the fungus or from cryogenic storage, are directly mixed into nutrient broth. DMSO solutions of the test compound (max. 10 mg/mL) are diluted with 0.025% Tween20 by a factor of 50 and 10 μl of this solution is pipetted into a microtiter plate (96-well format). The nutrient broth containing the fungal spores/mycelia fragments is then added to give an end concentration of the tested compound. The test plates are incubated in the dark at 24° C. and 96% relative humidity. The inhibition of fungal growth is determined photometrically after 2 to 7 days, depending on the pathosystem, and percent antifungal activity relative to the untreated check is calculated.
Conidia of the fungus from cryogenic storage were directly mixed into nutrient broth (PDB potato dextrose broth). A DMSO solution of the test compounds was placed into a microtiter plate (96-well format) and the nutrient broth containing the fungal spores was added to it.
The following mixture compositions at the reported concentration (in ppm) in tables C2-3 to C2-5 gave the following disease control in this test Septoria tritici (leaf blotch). Fungicidal activity was evaluated on a 100-0 scale (100=no disease growth; 0=well completely covered by mycelium).

[4] = Phakopsora pachyrhizi, foliar, applied alone, 4.5 g/ha, read-out: Observed Activity (% of untreated)
[5] = Phakopsora pachyrhizi, foliar, applied alone, 9 g/ha, read-out: Observed Activity (% of untreated)
[6] = Phakopsora pachyrhizi, foliar, applied alone, 18 g/ha, read-out: Observed Activity (% of untreated)
[7] = Phakopsora pachyrhizi, foliar, single active ingredient, 4.5 g/ha, read-out: Observed Activity (%)
[8] = Phakopsora pachyrhizi, foliar, single active ingredient, 9 g/ha, read-out: Observed Activity (%)
[9] = Phakopsora pachyrhizi, foliar, single active ingredient, 18 g/ha, read-out: Observed Activity (%)
[10] = single active ingredient, 9 g/ha
[11] = single active ingredient, 18 g/ha
[12] = Phakopsora pachyrhizi, foliar, applied alone, 22.5 g/ha, read-out: Observed Activity (% of untreated)
[13] = Phakopsora pachyrhizi, foliar, applied alone, 45 g/ha, read-out: Observed Activity (% of untreated)
[14] = Phakopsora pachyrhizi, foliar, applied alone, read-out: Observed Activity (% of untreated)
[15] = Phakopsora pachyrhizi, foliar, single active ingredient, soybean, preventative, 100=no disease, read-out: Observed Activity (%)
[16] = single component, 0.1 ppm, 100-0 scale (100=no disease growth)
[17] = single component, 0.3 ppm, 100-0 scale (100=no disease growth)
[18] = single active ingredient, 4.5 g/ha
[19] = Zymoseptoria tritici, single component, 0.3 ppm, 100-0 scale
[20] = single component, 0.3 ppm, 100-0 scale

## CON=C(C(=O)OC)c1ccccc1CON=C(C)c1cccc(C(F)(F)F)c1 [Trifloxystrobin]
[1]; Phakopsora pachyrhizi, foliar, applied alone, 2.25 g/ha, read-out: Observed Activity (% of untreated)
  inhibition at 2.25 g/ha: 0%
[1]; [4]
  inhibition at 4.5 g/ha: 3%
[1]; [5]
  inhibition at 9 g/ha: 0%
[1]; [6]
  inhibition at 18 g/ha: 19%
[1]; [7]
  inhibition at 4.5 g/ha: 0%
[1]; [8]
  inhibition at 9 g/ha: 1%
[1]; [9]
  inhibition at 18 g/ha: 33%

## Cc1cccc(-n2nnn(C)c2=O)c1COc1ccn(-c2ccc(Cl)cc2)n1 [Metyltetraprole]
[1]; applied alone, 9 g/ha
  Observed Activity (% of untreated): 2%
[1]; applied alone, 18 g/ha
  Observed Activity (% of untreated): 2%
[1]; [10]
  Observed Activity (%): 2%
[1]; [11]
  Observed Activity (%): 2%

## OC(Cc1ccccc1Cl)(Cn1nc[nH]c1=S)C1(Cl)CC1 (centres unmarked) [Prothioconazole]
[1]; [12]
  inhibition at 22.5 g/ha: 74%
[1]; [13]
  inhibition at 45 g/ha: 76%

## CC1COC(Cn2cncn2)(c2ccc(Oc3ccc(Cl)cc3)cc2Cl)O1 (centres unmarked) [Difenoconazole]
[1]; [12]
  inhibition at 22.5 g/ha: 0%
[1]; [13]
  inhibition at 45 g/ha: 0%

## CC(Cc1ccc(C(C)(C)C)cc1)CN1C[C@@H](C)O[C@@H](C)C1 (some centres unmarked) [Fenpropimorph, reference compound]
[1]; [14]
  inhibition at 225 g/ha: 8%
  inhibition at 450 g/ha: 43%
  inhibition at 900 g/ha: 76%
[1]; [15]
  inhibition at 225 g/ha: 8%
  inhibition at 450 g/ha: 43%
  inhibition at 900 g/ha: 76%
[2]; [16]
  inhibition at 0.1 ppm: 50%
[2]; [17]
  inhibition at 0.3 ppm: 70%

## OC(Cn1cncn1)(c1ccc(F)cc1)c1ccccc1F (centres unmarked) [flutriafol]
[2]; [16]
  inhibition at 0.1 ppm: 20%
[2]; [17]
  inhibition at 0.3 ppm: 70%

## CC(C1CC1)C(O)(Cn1cncn1)c1ccc(Cl)cc1 (centres unmarked) [Cyproconazole]
[1]; [12]
  inhibition at 22.5 g/ha: 51%
[1]; [13]
  inhibition at 45 g/ha: 52%

## Cn1cc(C(=O)Nc2cccc3c2[C@@H]2CC[C@H]3C2=C(Cl)Cl)c(C(F)F)n1 (racemic) [Benzovindiflupyr]
[1]; applied alone, 2.25 g/ha
  Observed Activity (% of untreated): 92%
[1]; applied alone, 4.5 g/ha
  Observed Activity (% of untreated): 94%
[1]; single active ingredient, 2.25 g/ha
  Observed Activity (%): 92%
[1]; [18]
  Observed Activity (%): 94%

## Cn1cc(C(=O)Nc2ccccc2-c2cc(F)c(F)c(F)c2)c(C(F)F)n1 [fluxapyroxad]
[2]; single component, 0.1 ppm
  Activity (%): 50%
[2]; [16]
  Activity (%): 50%
[2]; single component, 0.3 ppm
  Activity (%): 70%
[2]; [17]
  Activity (%): 70%

## CO/C=C(/C(=O)OC)c1ccccc1Oc1cc(Oc2ccccc2C#N)ncn1 [Azoxystrobin]
[1]; applied alone, 2.25 g/ha
  Observed Activity (% of untreated): 0%
[1]; applied alone, 4.5 g/ha
  Observed Activity (% of untreated): 15%
[1]; applied alone, 9 g/ha
  Observed Activity (% of untreated): 23%
[1]; applied alone, 18 g/ha
  Observed Activity (% of untreated): 9%
[1]; [18]
  Observed Activity (%): 0%
[1]; [10]
  Observed Activity (%): 2%
[1]; [11]
  Observed Activity (%): 26%

## COC(=O)N(OC)c1ccccc1COc1ccn(-c2ccc(Cl)cc2)n1 [Pyraclostrobin]
[1]; [4]
  inhibition at 4.5 g/ha: 1%
[1]; [5]
  inhibition at 9 g/ha: 1%
[1]; [6]
  inhibition at 18 g/ha: 0%
[1]; [7]
  inhibition at 4.5 g/ha: 1%
[1]; [8]
  inhibition at 9 g/ha: 1%
[1]; [9]
  inhibition at 18 g/ha: 0%

## CCCC1COC(Cn2cncn2)(c2ccc(Cl)cc2Cl)O1 (centres unmarked) [propiconazole]
[3]; [19]
  inhibition at 0.3 ppm: 70%

## CNC(=O)C(=N/OC)/C(C)=C\COc1ccn(-c2ccc(Cl)cc2Cl)n1 [(Z,2E)-5-[1-(2,4-dichlorophenyl)pyrazol-3-yl]oxy-2-methoxyimino-N,3-dimethyl-pent-3-enamide]
[1]; [5]
  inhibition at 9 g/ha: 2%
[1]; [6]
  inhibition at 18 g/ha: 3%
[1]; [8]
  inhibition at 9 g/ha: 2%
[1]; [9]
  inhibition at 18 g/ha: 3%

## CCCCC(O)(Cn1cncn1)c1ccc(Cl)cc1Cl (centres unmarked) [hexaconazole]
[3]; Zymoseptoria tritici, single component, 0.1 ppm, 100-0 scale (100=no disease growth)
  inhibition at 0.1 ppm: 70%

## CCOC(=O)C1CC(=O)C(=C(O)C2CC2)C(=O)C1 (centres unmarked) [trinexapac-ethyl]
[2]; [17]
  inhibition at 0.3 ppm: 0%

## CC(C)(C)C(O)(CCc1ccc(Cl)cc1)Cn1cncn1 (centres unmarked) [tebuconazole]
[2]; [16]
  inhibition at 0.1 ppm: 70%

## CC(C)(C)[C@@H](O)[C@@H](Cc1ccc(Cl)cc1)n1cncn1 (racemic) [paclobutrazol]
[2]; [16]
  inhibition at 0.1 ppm: 0%
[2]; [17]
  inhibition at 0.3 ppm: 50%

## CON(C(=O)c1cn(C)nc1C(F)F)C(C)Cc1c(Cl)cc(Cl)cc1Cl (centres unmarked) [Pydiflumetofen]
[1]; applied alone, 22.5 g/ha
  Observed Activity (% of untreated): 0%
[1]; applied alone, 45 g/ha
  Observed Activity (% of untreated): 4%

## CC(C)C1C2CCC1c1c(NC(=O)c3cn(C)nc3C(F)F)cccc12 (centres unmarked) [isopyrazam]
[2]; single component, 0.1 ppm
  Activity (%): 70%
[2]; [16]
  Activity (%): 70%
[2]; single component, 0.3 ppm
  Activity (%): 70%
[2]; [17]
  Activity (%): 70%
[3]; [16]
  Activity (%): 50%
[3]; [20]
  Activity (%): 70%

## S1SSSSSSS1 [sulphur]
[2]; [17]
  inhibition at 0.3 ppm: 0%

## CC1(C)N=C(c2cnc3ccccc3c2)c2ccccc2C1(F)F [quinofumelin]
[3]; [20]
  Activity (%): 0%

## CC(C1CC1)C(O)(Cn1cncn1)c1ccc(Cl)cc1 (centres unmarked) [cyproconazole]
[2]; [16]
  inhibition at 0.1 ppm: 20%
[3]; [19]
  inhibition at 0.3 ppm: 50%

## CC(Cc1ccc(C(C)(C)C)cc1)CN1CCCCC1 (centres unmarked) [Fenpropidin, reference compound]
[1]; [14]
  inhibition at 225 g/ha: 64%
  inhibition at 450 g/ha: 61%
  inhibition at 900 g/ha: 82%
[1]; [15]
  inhibition at 225 g/ha: 64%
  inhibition at 450 g/ha: 61%
  inhibition at 900 g/ha: 82%
[2]; [16]
  inhibition at 0.1 ppm: 0%
[2]; [17]
  inhibition at 0.3 ppm: 50%

## N#Cc1c[nH]cc1-c1cccc2c1OC(F)(F)O2 [fludioxonil]
[2]
  inhibition at 0.1 ppm: 0%
  inhibition at 0.3 ppm: 20%
[3]; Zymoseptoria tritici
  inhibition at 0.3 ppm: 20%

## O=C(NCCc1ncc(C(F)(F)F)cc1Cl)c1ccccc1C(F)(F)F [fluopyram]
[2]; [16]
  inhibition at 0.1 ppm: 0%
[2]; [17]
  inhibition at 0.3 ppm: 50%
